The text below walks through data of patent US6071944A, “Method of treatment of pigmented cancer cells utilizing photodynamic therapy” (Bowling Green State University, priority 1997, dated 2000).

For one data set, the system named is pigmented melanoma. Conditions: very virulent pigmented melanoma; cited from earlier work.
Another data set has as its system Amelanotic melanoma. The settings on record: cited from earlier work.
Data set [1] is described as follows: Effect of 1064 nm light on the photosensitizer (recovery, group II). It counts as in vivo, C57 mice. Conditions: injected 24 and 48 h before irradiation. As to the method:
(§1) SiNc incorporated into DPPC liposomes was injected at a dose of 1 mg/kg body weight into the caudal vein of C57 mice bearing the B16 pigmented melanoma. Three groups of mice (three mice per each time point) were used: (a) unirradiated control mice; (b) mice injected immediately after irradiation with the Nd: YAG laser (1064 nm, one pulse, 650 mJ); (c) mice injected at 24 h or 48 h before irradiation under the same conditions indicated for group (b). In all cases, at 3, 24 and 48 h after injection of isoBO--SiNc (groups a and b) and immediately after irradiation (group c), the mice were sacrificed by prolonged exposure to ether vapor. The blood was rapidly taken, centrifuged at 3000 rpm for 10 min. to remove the erythrocytes, and the serum was analyzed for its isoBO--SiNc content by a spectrophotofluorimetric procedure (4) using 690 nm as the excitation wavelength. The liver, tumor and peritumoral skin (namely an area with a 0.5 cm width surrounding the tumor) were excised and their isoBO--SiNc content was determined spectrophotofluorimetrically as previously described (4,5).
II = mice injected at 24 and 48 h before irradiation (1064 nm, 650 mJ, 1
Special attention was paid to the recoveries obtained at 24 h and 48 h after injection since these time intervals correspond with the maximum isoBO--SiNc accumulation in a variety of transplanted tumors and are generally used for PDT. […]

Details of data set [2]: species or system C57 mice. The settings on record: mouse, in vivo, iv, 1 mg/kg, 3 h. As to the method: as §1
The pharmacokinetic behavior of systematically injected isoBO--SiNc in unirradiated and 1064 nm-irradiated (650 mJ, one pulse) C57 mice is shown in Table 1.
C = control mice (mice not irradiated) […]
Values ± SD; three mice were independently analyzed each time, with th
exception of I where six mice were analyzed.

A further data set deals with B16 pigmented melanoma. As to the kind of experiment: Photodynamic therapy and high peak power irradiation studies: tumour regrowth of B16 pigmented melanoma. It counts as in vivo, C57 mice. The method, then: Female C57/BL6 and BALB/C mice (18-20 g body weight) obtained from Harlan Spraque Dawley, Inc. (Indianapolis, Ind.) were used as experimental models. B16 pigmented melanoma (the B16 cell line was obtained from American Type Culture Collection) was subcutaneously transplanted into the upper flank by injecting […] of a sterile cell suspension in PBS. The cell line was cultured in Dulbecco's modified minimal essential medium supplemented with 10% fetal calf serum. The cell culture was maintained at 37° C. in a humidified atmosphere of 5% CO2 in air. All of our experiments were performed at 5-7 days after injection of B16 melanoma cells, when the tumor volume was in the range of 0.02-0.04 cm^3 with an external diameter of 0.4-0.6 cm and a depth of 0.15-0.2 cm.
When the tumor diameter was in the range of 0.4-0.6 cm, groups of 7-8 B16 melanoma bearing mice were irradiated with 1064 nm light from the Nd: YAG laser at 500 or 650 mJ per pulse (HPP). In one group of mice at 24 h after isoBO--SiNc injection (1 mg/kg) the tumor area was exposed to 774 nm light from a dye laser which was operated at a fluence rate of 300 mW/cm^2 for a total light fluence of 520 J/cm^2. This PDT treatment was performed, in other two groups, also before or after the tumors had been exposed to 1064 nm light from the Nd: YAG (650 mJ). Another group of 8 mice was treated with PDT (isoBO--SiNc 1 mg/kg, 300 mW/cm^2, 520 J/cm^2) preceded by HPP (1064 nm, 650 mJ) and retreated in the same way 10 days later, when the tumors were regrowing.
In a parallel set of experiments, a sequential treatment involving HPP and PDT (with the same irradiation conditions mentioned above) was followed by an immediate further irradiation at 550 mW/cm^2 and 200 j/cm^2 from the same 774 nm light. For each group the effectiveness of the treatment was evaluated by comparing the rate of tumor growth of the irradiated mice with that observed for control mice transplanted simultaneously with the phototreated mice but not exposed to light and not injected with isoBO--SiNc. The tumor size was measured daily by means of a caliper. Individual tumor volumes (V) were calculated by assuming a hemiellipsoidal structure for the tumor nodule and measuring the two perpendicular axes (a and b) and the height (c). Application of the relationship V 2/3(a/2×b/2×c) provided the tumor volume. The time to reach a defined tumor volume was calculated for the individual tumors.
Special attention was paid to the recoveries obtained at 24 h and 48 h after injection since these time intervals correspond with the maximum isoBO--SiNc accumulation in a variety of transplanted tumors and are generally used for PDT. The data obtained for control mice were in good agreement with those previously found in our laboratory. […] On the basis of the above described findings, a PDT experiment (776 nm; 300 mW/cm^2 -520 J/cm^2) was performed at 24 h post injection, immediately after HPP irradiation with a single 650 mJ pulse of 1064 nm light.
HPP: High Peak Power irradiation from Nd: YAG laser, 1064 nm, […] per
PDT: Photodynamic Therapy from dye laser, 774 nm, 300 mW/cm^2, 520
PTT: Photothermal Therapy from dye laser, 774 nm, 550 mW/cm^2, 200
*Difference between the growth time for treated and control mice. The
growth time is the time interval for the tumour to grow to a volume of 1
cm^3 from the size at the time of irradiation (0.03-0.04 cm^3).
The growth time of control mice was 11 days.

“Also recorded” adds a separate entry of the source.

Consider Photofrin, for which the “response of pigmented melanoma to PDT” value with pigmented melanoma is listed as “poorly responsive”. In the data set on Amelanotic melanoma, the “response of amelanotic melanoma to Photofrin-PDT” value is on record as “successfully treated”.

With `CCCCCCCCCCCCCCCCCC[Si]([O-])(CC(C)C)CC(C)C.CCCCCCCCCCCCCCCCCC[Si]([O-])(CC(C)C)CC(C)C.[Si+4].c1ccc2cc3c(cc2c1)-c1nc2nc(nc4[n-]c(nc5[n-]c(nc-3n1)c1cc3ccccc3cc51)c1cc3ccccc3cc41)-c1cc3ccccc3cc1-2` [isoBO-SiNc, Bis(di-isobutyloctadecylsiloxy)-2,3-naphthalocyanato silicon], the “effect of 1064 nm irradiation on recovery / integrity of the photosensitizer” value in data set [1] is reported as “no appreciable effect on the recovery; also recorded: not affected by 1064 nm light”. Also, the “Recovery of isoBO-SiNc from selected tissues: peritumoural skin” value in data set [2] was 0.44 ± 0.1 μg of drug per g. Besides, the “delay of tumor regrowth” value with B16 pigmented melanoma (1 mg/kg, PDT 300 mW/cm^2, 520 J/cm^2, 776 nm diode laser immediately after 1064 nm irradiation) was 11 days; with B16 pigmented melanoma (PDT under identical conditions without the pre-irradiation), 4 days. Also, the “Mice tumour free time” value with B16 pigmented melanoma (HPP + PDT) was 9 days; with B16 pigmented melanoma (HPP + PDT + HPP + PDT (retreated 10 days later)), 21 days; in the data set on B16 pigmented melanoma (HPP + PDT + PTT (774 nm, 550 mW/cm^2, 200 J/cm^2)), 22 days; in the data set with B16 pigmented melanoma (PDT (774 nm, 300 mW/cm^2, 520 J/cm^2), 1 mg/kg) it was 2 days; in the data set with B16 pigmented melanoma (PDT + HPP (1064 nm Nd:YAG, 650 mJ per pulse)) it was 2 days. Besides, the Regrowth delay in the data set with B16 pigmented melanoma (HPP + PDT + HPP + PDT (retreated 10 days later), growth time to 1 cm^3 vs control mice) amounted to 27 days; in the data set on B16 pigmented melanoma (HPP + PDT + PTT, growth time to 1 cm^3 vs control mice) it was 34.6 days; with B16 pigmented melanoma (HPP + PDT, growth time to 1 cm^3 vs control mice), 16.4 days; in the data set on B16 pigmented melanoma (PDT + HPP, growth time to 1 cm^3 vs control mice), 7 days; with B16 pigmented melanoma (PDT, difference in growth time to 1 cm^3 between treated and control mice) it was 6.3 days. For the same molecule, the “tumor response to combined HPP and PDT” value with B16 pigmented melanoma (HPP irradiation followed by PDT) was “remarkable retardation in tumor growth rate; also recorded: significant tumor response which is markedly larger than that obtained with either treatment alone”. Also, the “animals essentially tumor-free post-PDT” value with B16 pigmented melanoma (PDT (776 nm; 300 mW/cm^2, 520 J/cm^2) 24 h post injection, immediately after HPP 650 mJ pulse, FIG. 3) was approximately 11 days.
